Assay results reported in ChEMBL document CHEMBL3885861, “Open TG-GATES”.

Organism: Rattus norvegicus
Assay: Open TG-GATES - Regimen: Single
Type: toxicity, organism-based, Sprague-Dawley
Parameters: regimen Single, gender Male, age 6 weeks
Settings: in vivo, po, 1000 mg/kg, route gavage, dose level High; for APTT / Bas / Eos / Fbg / Hb / Ht / Lym / MCH / MCHC / MCV / Mono / Neu / PT / Plat / RBC / Ret / WBC: tissue Blood; for KIDNEY_L / KIDNEY_R / KIDNEY_TOTAL: tissue Kidney; for LIVER: tissue Liver; for A/G / ALP / ALT / AST / BUN / CRE / Ca / Cl / DBIL / GLC / IP / K / LDH / Na / PL / RALB / TBIL / TC / TG / TP / gamma-GTP: tissue Plasma

CN/C(=N/CCSCc1nc[nH]c1C)NC#N [CIMETIDINE]
TERMINAL_BW (3 h): 215.2 g | APTT (3 h): 19.1 s | Bas (3 h): 0% | Eos (3 h): 1% | Fbg (3 h): 216.2 mg/dL | Hb (3 h): 12.3 g/dL | Ht (3 h): 36.7% | Lym (3 h): 76.4% | MCH (3 h): 21.2 pg | MCHC (3 h): 33.5% | MCV (3 h): 63.1 fL | Mono (3 h): 3% | Neu (3 h): 18.6% | PT (3 h): 13.1 s | Plat (3 h): 126.2 x10_4/uL | RBC (3 h): 582 x10_4/ul | Ret (3 h): 7.9% | WBC (3 h): 89.9 x10_2/uL | KIDNEY_L (3 h): 1 g | KIDNEY_R (3 h): 1 g | KIDNEY_TOTAL (3 h): 2 g | LIVER (3 h): 9.8 g | A/G (3 h): 1.7 | ALP (3 h): 1031 IU/L | ALT (3 h): 35.6 IU/L | AST (3 h): 67 IU/L | BUN (3 h): 8.6 mg/dL | CRE (3 h): 0.4 mg/dL | Ca (3 h): 10.6 mg/dL | Cl (3 h): 104.4 meq/L | DBIL (3 h): 0.068 mg/dL | GLC (3 h): 181.8 mg/dL | IP (3 h): 8.3 mg/dL | K (3 h): 4 meq/L | LDH (3 h): 175 IU/L | Na (3 h): 141.4 meq/L | PL (3 h): 150.2 mg/dL | RALB (3 h): 3.3 g/dL | TBIL (3 h): 0.1 mg/dL | TC (3 h): 77.6 mg/dL | TG (3 h): 46.6 mg/dL | TP (3 h): 5.3 g/dL | gamma-GTP (3 h): 1 IU/L | TERMINAL_BW (6 h): 211.9 g | APTT (6 h): 19 s | Bas (6 h): 0% | Eos (6 h): 0.8% | Fbg (6 h): 227.4 mg/dL | Hb (6 h): 13.2 g/dL | Ht (6 h): 38.2% | Lym (6 h): 78% | MCH (6 h): 21.7 pg | MCHC (6 h): 34.5% | MCV (6 h): 63 fL | Mono (6 h): 2.8% | Neu (6 h): 17.2% | PT (6 h): 13.5 s | Plat (6 h): 125.8 x10_4/uL | RBC (6 h): 607.4 x10_4/ul | Ret (6 h): 7.6% | WBC (6 h): 100.8 x10_2/uL | KIDNEY_L (6 h): 1 g | KIDNEY_R (6 h): 1 g | KIDNEY_TOTAL (6 h): 2 g | LIVER (6 h): 9.6 g | A/G (6 h): 1.5 | ALP (6 h): 955 IU/L | ALT (6 h): 34.2 IU/L | AST (6 h): 65.8 IU/L | BUN (6 h): 8.2 mg/dL | CRE (6 h): 0.4 mg/dL | Ca (6 h): 10.6 mg/dL | Cl (6 h): 103.6 meq/L | DBIL (6 h): 0.078 mg/dL | GLC (6 h): 200.8 mg/dL | IP (6 h): 9.8 mg/dL | K (6 h): 4 meq/L | LDH (6 h): 162.2 IU/L | Na (6 h): 142.4 meq/L | PL (6 h): 153.4 mg/dL | RALB (6 h): 3.4 g/dL | TBIL (6 h): 0.1 mg/dL | TC (6 h): 75.6 mg/dL | TG (6 h): 83.2 mg/dL | TP (6 h): 5.6 g/dL | gamma-GTP (6 h): 1.2 IU/L | TERMINAL_BW (9 h): 208.6 g | APTT (9 h): 18.7 s | Bas (9 h): 0% | Eos (9 h): 1% | Fbg (9 h): 229.2 mg/dL | Hb (9 h): 13.1 g/dL | Ht (9 h): 37.4% | Lym (9 h): 80% | MCH (9 h): 22.1 pg | MCHC (9 h): 35.1% | MCV (9 h): 63 fL | Mono (9 h): 2.4% | Neu (9 h): 15.6% | PT (9 h): 14.1 s | Plat (9 h): 120.4 x10_4/uL | RBC (9 h): 594.2 x10_4/ul | Ret (9 h): 7.9% | WBC (9 h): 94.9 x10_2/uL | KIDNEY_L (9 h): 0.9 g | KIDNEY_R (9 h): 0.9 g | KIDNEY_TOTAL (9 h): 1.9 g | LIVER (9 h): 8.9 g | A/G (9 h): 1.7 | ALP (9 h): 1031 IU/L | ALT (9 h): 32.8 IU/L | AST (9 h): 62.4 IU/L | BUN (9 h): 8.2 mg/dL | CRE (9 h): 0.4 mg/dL | Ca (9 h): 10.3 mg/dL | Cl (9 h): 103.6 meq/L | DBIL (9 h): 0.068 mg/dL | GLC (9 h): 193.6 mg/dL | IP (9 h): 9.7 mg/dL | K (9 h): 3.7 meq/L | LDH (9 h): 157 IU/L | Na (9 h): 142 meq/L | PL (9 h): 150.4 mg/dL | RALB (9 h): 3.5 g/dL | TBIL (9 h): 0.1 mg/dL | TC (9 h): 77.2 mg/dL | TG (9 h): 58.6 mg/dL | TP (9 h): 5.5 g/dL | gamma-GTP (9 h): 1.4 IU/L | TERMINAL_BW (24 h): 223 g | APTT (24 h): 19.3 s | Bas (24 h): 0% | Eos (24 h): 1% | Fbg (24 h): 212.4 mg/dL | Hb (24 h): 13.1 g/dL | Ht (24 h): 39% | Lym (24 h): 80.6% | MCH (24 h): 21.3 pg | MCHC (24 h): 33.6% | MCV (24 h): 63.4 fL | Mono (24 h): 2.4% | Neu (24 h): 14.8% | PT (24 h): 13 s | Plat (24 h): 122.4 x10_4/uL | RBC (24 h): 616 x10_4/ul | Ret (24 h): 6.8% | WBC (24 h): 101.7 x10_2/uL | KIDNEY_L (24 h): 1 g | KIDNEY_R (24 h): 1 g | KIDNEY_TOTAL (24 h): 2 g | LIVER (24 h): 10.6 g | A/G (24 h): 1.6 | ALP (24 h): 1054.4 IU/L | ALT (24 h): 34.2 IU/L | AST (24 h): 68.8 IU/L | BUN (24 h): 17.8 mg/dL | CRE (24 h): 0.4 mg/dL | Ca (24 h): 10.6 mg/dL | Cl (24 h): 102 meq/L | DBIL (24 h): 0.1 mg/dL | GLC (24 h): 206.8 mg/dL | IP (24 h): 7.7 mg/dL | K (24 h): 3.8 meq/L | LDH (24 h): 200 IU/L | Na (24 h): 140 meq/L | PL (24 h): 148 mg/dL | RALB (24 h): 3.3 g/dL | TBIL (24 h): 0.2 mg/dL | TC (24 h): 76.2 mg/dL | TG (24 h): 96.2 mg/dL | TP (24 h): 5.4 g/dL | gamma-GTP (24 h): 1.4 IU/L
